Measurements from PMC11284788, “NN1213 – A Potent, Long-Acting, and Selective Analog of Human Amylin” (Journal of Medicinal Chemistry, 2024).
Read-outs that look alike come from different tables or passages of the source.

How the values were obtained:
[1] = ThT assay: fibril formation propensity and peptide recovery; format: physicochemical; conditions: for ThT, pH 4.0 lag-time: 250 μM peptide, 10 mM glycylglycine pH 4.0, 1 μM ThT, 37 °C, 960 rpm, 45 h, lowest of four replicas, average of experiments; for recovery: pH 4.0, residual dissolved peptide after 45 h of shaking, centrifugation and 0.22 μm filtration, HPLC, relative to amount before stress
In short: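 Peptides at 250 μM in 10 mM glycylglycine (pH 4.0) or HEPES (pH 7.5) with 1 μM ThT, shaken at 37 °C, 960 rpm, for 45 h; ThT fluorescence (ex 444/em 485 nm) read every 20 min. Lag time is the lowest of four replicates (>45 h if none); recovery is soluble peptide by HPLC after centrifugation/filtration, relative to pre-stress.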

[2] = target: T1, hAMY3R (Homo sapiens, UniProt O60896+P30988); assay: cAMP-responsive element luciferase reporter assay, human AMY3R; format: cell-based; set-up: expressed in transfected cells; conditions: for ratio hCTR/hAMY3R: ratio of luciferase EC50 values
T1 sequence (P30988 25-474): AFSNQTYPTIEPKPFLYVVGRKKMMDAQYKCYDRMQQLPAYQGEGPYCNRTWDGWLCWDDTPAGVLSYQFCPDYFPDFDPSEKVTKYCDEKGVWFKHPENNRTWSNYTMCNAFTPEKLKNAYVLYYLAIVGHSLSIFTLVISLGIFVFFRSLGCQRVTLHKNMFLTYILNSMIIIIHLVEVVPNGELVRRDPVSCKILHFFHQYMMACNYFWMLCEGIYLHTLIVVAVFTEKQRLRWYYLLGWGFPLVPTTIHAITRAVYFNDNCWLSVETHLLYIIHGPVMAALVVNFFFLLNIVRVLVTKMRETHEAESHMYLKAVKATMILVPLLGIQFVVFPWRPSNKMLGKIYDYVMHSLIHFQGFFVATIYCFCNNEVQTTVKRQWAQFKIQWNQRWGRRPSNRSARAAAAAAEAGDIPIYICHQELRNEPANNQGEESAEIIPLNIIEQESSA
T1 sequence (O60896 24-148 partner): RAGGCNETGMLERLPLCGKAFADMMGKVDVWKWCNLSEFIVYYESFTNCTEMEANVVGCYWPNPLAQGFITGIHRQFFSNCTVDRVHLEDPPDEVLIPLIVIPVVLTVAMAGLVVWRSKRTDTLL

[3] = Solubility versus pH profile
[4] = bis-tris-propane buffer, pH 6, aqueous buffer
[5] = bis-tris-propane buffer, pH 6.5, aqueous buffer
[6] = bis-tris-propane buffer, pH 7, aqueous buffer
[7] = bis-tris-propane buffer, pH 7.5, aqueous buffer
[8] = bis-tris-propane buffer, pH 8, aqueous buffer
[9] = lactate buffer, pH 4, aqueous buffer
[10] = lactate buffer, pH 5, aqueous buffer

Row | ThT, pH 4.0 lag-time [1] [h] | recovery [1] [%] | EC50 ([2]; luciferase (human receptor assay), Tables S12 and S14, read-out: hAMY3R pEC50 (converted)) [nM] | EC50 ([2]; luciferase (human receptor assay), BHK cells stably expressing hCTR+RAMP3 and CRE-luciferase, 3 h, 37 °C, 10% FBS, read-out: hAMY3R EC50) [nM] | ratio hCTR/hAMY3R [2] | solubility kinetic [3, 4] [µM] | solubility kinetic [3, 5] [µM] | solubility kinetic [3, 6] [µM] | solubility kinetic [3, 7] [µM] | solubility kinetic [3, 8] [µM] | solubility kinetic [3, 9] [µM] | solubility kinetic [3, 10] [µM] | hAMY3R pEC50 ([2]; luciferase (human receptor assay), Tables S12 and S14) | SMILES
1 | 35 | 99 | 0.309 | 0.31 | 8.4 | ≥ 200 | ≥ 200 | ≥ 200 | ≥ 200 | ≥ 200 | ≥ 200 | ≥ 200 |  | CC[C@H](C)[C@H](NC(=O)[C@H](C)NC(=O)CNC(=O)[C@H](Cc1ccccc1)NC(=O)[C@H](CC(N)=O)NC(=O)[C@@H]1CCCN1C(=O)[C@H](CO)NC(=O)[C@H](CO)NC(=O)[C@H](Cc1c[nH]cn1)NC(=O)[C@H](CCCNC(=N)N)NC(=O)[C@H](CC(C)C)NC(=O)[C@H](Cc1ccccc1)NC(=O)[C@H](CC(N)=O)NC(=O)[C@H](C)NC(=O)[C@H](CC(C)C)NC(=O)[C@H](CCCNC(=N)N)NC(=O)[C@H](CCC(N)=O)NC(=O)[C@@H](NC(=O)[C@H](C)NC(=O)[C@@H]1CSSC[C@H](NC(=O)[C@H](CCCCN)NC(=O)CC[C@H](NC(=O)CCCCCCCCCCCCCCCCCCC(=O)O)C(=O)O)C(=O)N[C@@H](CC(N)=O)C(=O)N[C@@H]([C@@H](C)O)C(=O)N[C@@H](C)C(=O)N[C@@H]([C@@H](C)O)C(=O)N1)[C@@H](C)O)C(=O)N1CCC[C@H]1C(=O)N[C@@H](CO)C(=O)N[C@@H](CO)C(=O)N[C@H](C(=O)N[C@@H](CC(N)=O)C(=O)N[C@H](C(=O)NCC(=O)N[C@@H](CO)C(=O)N[C@@H](CCCCN)C(=O)N[C@H](C(=O)N[C@@H](Cc1ccc(O)cc1)C(N)=O)[C@@H](C)O)C(C)C)[C@@H](C)O [Peptide 13]
2 | >45 | 100 |  |  | 12 | ≥ 200 | ≥ 200 | ≥ 200 | ≥ 200 | ≥ 200 | ≥ 200 | ≥ 200 | 9.66 | CC[C@H](C)[C@H](NC(=O)[C@H](C)NC(=O)CNC(=O)[C@H](Cc1ccccc1)NC(=O)[C@H](CC(N)=O)NC(=O)[C@@H]1CCCN1C(=O)[C@H](CO)NC(=O)[C@H](CO)NC(=O)[C@H](Cc1c[nH]cn1)NC(=O)[C@H](CCCNC(=N)N)NC(=O)[C@H](CC(C)C)NC(=O)[C@H](Cc1ccccc1)NC(=O)[C@H](CC(N)=O)NC(=O)[C@H](C)NC(=O)[C@H](CC(C)C)NC(=O)[C@H](CCCNC(=N)N)NC(=O)[C@H](CCC(N)=O)NC(=O)[C@@H](NC(=O)[C@H](C)NC(=O)[C@@H]1CSSC[C@H](NC(=O)[C@H](CCCCN)NC(=O)CC[C@H](NC(=O)CCCCCCCCCCCCCCCCCCC(=O)O)C(=O)O)C(=O)N[C@@H](CC(N)=O)C(=O)N[C@@H]([C@@H](C)O)C(=O)N[C@@H](C)C(=O)N[C@@H]([C@@H](C)O)C(=O)N1)[C@@H](C)O)C(=O)N1CCC[C@H]1C(=O)N[C@@H](CO)C(=O)N[C@@H](CO)C(=O)N[C@H](C(=O)N[C@@H](CC(N)=O)C(=O)N[C@H](C(=O)NCC(=O)N[C@@H](CCCNC(=N)N)C(=O)N[C@@H](CC(N)=O)C(=O)N[C@H](C(=O)N[C@@H](Cc1ccc(O)cc1)C(N)=O)[C@@H](C)O)C(C)C)[C@@H](C)O [Peptide 16]
